Patent US20180064965A1, “PEPTIDE FOR PROMOTING HAIR GROWTH” (H&H GROUP CO., LTD., priority 2016, published 2018)

What was measured:
dermal papilla cells = experiment: Cell proliferation assay (MTT); assay type: cell-based; conditions: rat dermal papilla cells, 50 μg/ml, quotient of MTT value vs 0 hour
Procedure: Dermal papilla cells were isolated from rat whiskers and cells were cultured in Dulbecco's modified Eagle's medium (Thermo Scientific, Barrington, Ill., USA) with 10% fetal bovine serum (Gibco, Grand Island, N.Y., USA) and penicillin/streptomycin (100 IU/[…]) in a humidified atmosphere containing 5% CO2 at 37° C. Dermal papilla cells at the 3rd passage were used for all of the following experiments.
2×10^3 dermal papilla cells were seeded in 96-well plates and incubated with Mucinhair peptide (50 μg/ml) or ddH2O for the indicated period. 10 μL of 5 mg/mL 3-(4,5-dimethyl-2-thiazolyl)-2,5-diphenyl-2H-tetrazolium bromide solution (MTT; Sigma) was added to each well and incubated at 37° C. for 4 hours. After which, 100 μL of 10% SDS in 0.01N HCl was added to dissolve the MTT formazan crystals. The resultant optical density was measured spectrophotometrically at dual wavelengths, 550 and 630 nm. The MTT value was obtained by subtracting the OD630 value from the OD550 value.
The term “proliferation rate” used herein is defined as a quotient of the MTT value calculated from cells treated for an indicated period and that calculated from cells treated for 0 hour.

Hair follicles = experiment: Hair follicle culture; assay type: cell-based; conditions: rat whisker hair follicles, 50 μg/ml, 20th day after treatment, vs ddH2O
Procedure: Hair follicles were isolated from 4 week-old rat whiskers and were maintained in Dulbecco's Modified Eagle Medium supplemented with 10% fetal bovine serum, 1% (v/v) antibiotic, and 250 ng/ml fungizone in 5% CO2 at 37° C. for 24 hours. Then, the hair follicles were treated with ddH2O or Mucinhair peptide (50 μg/ml). Medium was changed every 6 days and the hair shaft lengths were measured under a phase contrast microscope on the 20th day after the treatment.

nude mice = experiment: Hair patch assay for nude mice; assay type: in vivo; conditions: subcutaneous injection of epidermal and dermal cells with 50 μg/ml peptide, 30 days
Procedure: Skin was peeled off from 1 day-old C57BL/6 mouse and its epidermis was separated from the dermis by 10 mg/ml Dispase digestion at 4° C. for 2 days. Epidermis and dermis were cut into small pieces and digested at 37° C. in 0.05% Trypsin-EDTA for 15 minutes and then 20 mg/ml collagenase for 60 minutes. Epidermal cells and dermal cells were collected through filtration with 70 μm strainers and low-speed centrifugation.
2×10^7 epidermal cells and 1×10^8 dermal cells were subcutaneously injected into nude mice with ddH2O or Mucinhair peptide (50 μg/ml). After 30 days, mice were sacrificed and hair patch was excised and photographed. The excised skins were paraffin-embedded and tissues were sectioned and stained with hemmtoxylin and eosin (H&E).

NTSDPQKENRNTG [Mucinhair peptide]
proliferation rate (dermal papilla cells; treated for 48 hours): 2.26±0.23
proliferation rate (dermal papilla cells; treated for 96 hours): 3.31±0.21
hair shaft lengths (Hair follicles): longer than those grown with ddH2O treatment
hair follicles in hypodermis (H&E) (nude mice): has neogenic hair follicles
region with hairs (nude mice; vs ddH2O): larger than that injected with ddH2O
